{"source": "patent US11597739B2", "about": "“Enhancing CD8+ T cells for adoptive T cell therapy by inhibiting PTPN1 (PTP1B) and PTPN2 (TC-PTP)” (The Royal Institution for the Advancement of …, priority 2017, dated 2023)", "test_system": "mouse CD8 T cells differentiated into Tcm cells", "test": "Exhaustion and effector markers after CTL re-stimulation (flow cytometry)", "format": "cell-based", "details": "second stimulation with anti-CD3, anti-CD28 and IL-2 for 5 days", "from_the_text": "FIG. 8 illustrates that pharmacological inhibition of PTPN1/2 reduces expression of exhaustion markers and increases effector-molecule expression after CTL re-stimulation. Flow cytometric analysis of CD8 T cells differentiated into Tcm cells after 5 days of a second stimulation with anti-CD3 and anti-CD28 in presence or absence of K884. Histograms show the expression of exhaustion markers PD-1, CTLA-4, KLRG1 and LAG-3, and granzyme B and IFN-γ as markers of effector CTLs. Cells are gated on live/CD8+/CD62L^high.\n2 μg/ml of 145-2C11 Hamster anti-Mouse CD3e in 300 μl of PBS are plated in 24 flat bottom well non-TC treated plates. Incubate O/N at 4° C. CD8 T cells from spleens of 8-12 weeks old OT-1 transgenic mice are isolated. 4×10^5 cells/ml are counted and resuspended in complete RPMI (RPMI+10% FBS heat inactivated at 55° C. for 45 min+Pen/Strep+55 μM β-Mercaptoethanol). The following 2× solutions are prepared:\n0.5 ml of 2× solution is added to the corresponding wells. Incubate for 4-8 days. Every 2 days add inhibitor to the corresponding concentration. When the cells are confluent, expand to 6 cm tissue culture plates adding 4 ml of complete RPMI+20 U/ml of IL-2 and in b add 10 μM K884.\nCalculate the specific cell lysis as follows: Specific cell lysis=((Sample−BF)/(AF−BF))×100 10) Flow Cytometry 1. Cell Activation • a. Wash cells with 1 ml of culture medium; • b. Centrifuge cells for 5 min at 300 g; • c. Resuspend cells in culture medium; • d. Prepare 2× solutions (negative control with only culture medium, Positive condition with 50 ng/mL of PMA and 500 ng/mL of lonomycin); • e. Plate 100 μL of cell suspension in 96 well plates (U-bottom); • f. Add 100 μL of 2× solutions in appropriate wells; • g. Incubate 4 hours at 37 C, 5% CO2. 2. Extracellular Staining • a. Record cell quantity transfers per tube; • b. Wash cells with 1 mL of PBS+2% FBS; • c. Centrifuge cells for 5 min at 300 g; • d. Empty tubes by inversion; • e. Add the antibodies for extracellular staining; • f. Incubate 20 min at 4° C.; • g. Wash cells with 1 mL of PBS+2% FBS; • h. Centrifuge cells for 5 min at 300 g; • i. […]", "data": [{"smiles": "CCOC(=O)c1cc2cc(C(F)(F)P(=O)(O)O)c(Br)cc2s1", "note": "[Ex. 1, ((6-BROMO-2-(ETHOXYCARBONYL)BENZO[B]THIOPHEN-5-YL)DIFLUOROMETHYL)PHOSPHONATE]", "values": [{"measurement": "expression of exhaustion markers PD-1, CTLA-4, KLRG1", "result": "displayed less exhaustion markers PD-1, CDTLA4 and KLRG1"}, {"measurement": "expression of the receptor LAG-3", "result": "increased expression of the receptor LAG-3"}, {"measurement": "levels of Granzyme B and IFN-gamma", "result": "higher levels of Granzyme B and IFN-gamma"}]}]}
